In patent US20130261077A1 (priority 2012, published 2013):

Each compound was assayed against T1, FimH-CRD (Escherichia coli, UniProt P08191) (assay: Competitive binding assay by fluorescence polarization, assay 2 (compounds prepared by robotics, plates frozen and thawed)).
T1 construct: The first 177 amino acids of the FimH protein; thrombin tag (printed as 'fusion protein with thrombin') (cleaved yes); made in house; host or cells: bacteria (pET21b plasmid)
Method in brief: (§1)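 Compounds at 0.4 nM–75 μM final (12 points, 3-fold steps, duplicate) compete with a 5 nM Alexa 647 mannoside probe for 60 nM FimH-CRD; 5 h room-temperature incubation in pH 7.0 Tris buffer with 2.5% DMSO, FP read-out, Kd from fitted curves. Assay 1 uses manual dilution, assay 2 robot-made frozen/thawed plates.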

T1 sequence (P08191 22-177): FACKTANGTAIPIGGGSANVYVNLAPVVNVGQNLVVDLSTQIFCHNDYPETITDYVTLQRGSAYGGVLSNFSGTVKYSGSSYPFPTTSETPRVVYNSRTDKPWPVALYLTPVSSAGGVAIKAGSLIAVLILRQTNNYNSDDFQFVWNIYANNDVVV

Compared with `CNC(=O)c1cccc([C@H]2O[C@H](CO)[C@@H](O)[C@H](O)[C@@H]2O)c1` [Compound 35, N-methyl-3-((2R,3S,4R,5S,6R)-3,4,5-trihydroxy-6-(hydroxymethyl)tetrahydro-2H-pyran-2-yl)benzamide], `CNC(=O)c1cccc(COc2cccc([C@H]3O[C@H](CO)[C@@H](O)[C@H](O)[C@@H]3O)c2)c1` [Compound 227, N-methyl-3-[[3-[(2R,3S,4R,5S,6R)-3,4,5-trihydroxy-6-(hydroxymethyl)tetrahydropyran-2-yl]phenoxy]methyl]benzamide] is 3-fold lower in Kd: 113 nM for the first, 37.1 ± 15.4 nM for the second. The second binds more tightly here.

Compared with `COc1cccc([C@H]2O[C@H](CO)[C@@H](O)[C@H](O)[C@@H]2O)c1` [Compound 44, (2R,3S,4R,5S,6R)-2-(hydroxymethyl)-6-(3-methoxyphenyl)tetrahydropyran-3,4,5-triol], `COc1cc([C@H]2O[C@H](CO)[C@@H](O)[C@H](O)[C@@H]2O)ccc1Br` [Compound 77] is 1.6-fold higher in Kd: 50.4 ± 10.1 nM for the first, 81.7 ± 11 nM for the second.

`COC(=O)c1ccc(Oc2ccc([C@H]3O[C@H](CO)[C@@H](O)[C@H](O)[C@@H]3O)cc2)cc1` [Compound 54, methyl 4-(4-((2R,3S,4R,5S,6R)-3,4,5-trihydroxy-6-(hydroxymethyl)tetrahydro-2H-pyran-2-yl)phenoxy)benzoate] and `CNC(=O)c1ccc(Oc2cc([C@H]3O[C@H](CO)[C@@H](O)[C@H](O)[C@@H]3O)ccc2OC)cc1` [Compound 187, 4-[2-methoxy-5-[(2R,3S,4R,5S,6R)-3,4,5-trihydroxy-6-(hydroxymethyl)tetrahydropyran-2-yl]phenoxy]-N-methyl-benzamide] are within error of each other in Kd: 13.2 ± 9.2 nM for the first, 9.9 ± 1.9 nM for the second.

`COC(=O)c1cc(C(=O)OC)cc(-c2cccc([C@H]3O[C@H](CO)[C@@H](O)[C@H](O)[C@@H]3O)c2)c1` [Compound 62, Dimethyl 3′-((2R,3S,4R,5S,6R)-3,4,5-trihydroxy-6-(hydroxymethyl)tetrahydro-2H-pyran-2-yl)-[1,1′-biphenyl]-3,5-dicarboxylate] and `COC(=O)c1cc(C#Cc2cc([C@H]3O[C@H](CO)[C@@H](O)[C@H](O)[C@@H]3O)ccc2OC)cc(C(=O)OC)c1` [Compound 82, Dimethyl 5-[2-[2-methoxy-5-[(2R,3S,4R,5S,6R)-3,4,5-trihydroxy-6-(hydroxymethyl)tetrahydropyran-2-yl]phenyl]ethynyl]benzene-1,3-dicarboxylate] are within error of each other in Kd: 7.6 ± 2 nM for the first, 23.2 ± 15.1 nM for the second.

`Cc1nnc(-c2ccc(Oc3cccc([C@H]4O[C@H](CO)[C@@H](O)[C@H](O)[C@@H]4O)c3)cc2)o1` [Compound 60, (2R,3S,4R,5S,6R)-2-(hydroxymethyl)-6-[3-[4-(5-methyl-1,3,4-oxadiazol-2-yl)phenoxy]phenyl]tetrahydropyran-3,4,5-triol] and `Cc1nnc(-c2ccc3cc(-c4cccc([C@H]5O[C@H](CO)[C@@H](O)[C@H](O)[C@@H]5O)c4)ccc3c2)o1` [Compound 161, (2R,3S,4R,5S,6R)-2-(hydroxymethyl)-6-[3-[6-(5-methyl-1,3,4-oxadiazol-2-yl)-2-naphthyl]phenyl]tetrahydropyran-3,4,5-triol] are within error of each other in Kd: 10.7 ± 5.3 nM for the first, 6.6 ± 1.2 nM for the second.

`COC(=O)c1cccc(Cn2cc(-c3ccc([C@H]4O[C@H](CO)[C@@H](O)[C@H](O)[C@@H]4O)cc3)nn2)c1` [Compound 80, Methyl 3-[[4-[4-[(2R,3S,4R,5S,6R)-3,4,5-trihydroxy-6-(hydroxymethyl)tetrahydropyran-2-yl]phenyl]triazol-1-yl]methyl]benzoate] and `COC(=O)c1cccc(C#Cc2ccc([C@H]3O[C@H](CO)[C@@H](O)[C@H](O)[C@@H]3O)cc2)c1` [Compound 88, Methyl 3-[2-[4-[(2R,3S,4R,5S,6R)-3,4,5-trihydroxy-6-(hydroxymethyl)tetrahydropyran-2-yl]phenyl]ethynyl]benzoate] are within error of each other in Kd: 12.3 ± 6.2 nM for the first, 11.8 ± 7.9 nM for the second.

`OC[C@H]1OC(c2cccc(Oc3ccnc4ccccc34)c2)[C@@H](O)[C@@H](O)[C@@H]1O` (stereo partly drawn) [Compound 254] and `CNC(=O)c1cccc(Oc2cc([C@H]3O[C@H](CO)[C@@H](O)[C@H](O)[C@@H]3O)ccc2F)c1` [Compound 203, 3-[2-fluoro-5-[(2R,3S,4R,5S,6R)-3,4,5-trihydroxy-6-(hydroxymethyl)tetrahydropyran-2-yl]phenoxy]-N-methyl-benzamide] are within 1.5-fold of each other in Kd: 7.9 nM for the first, 9.2 ± 1.2 nM for the second.

`COc1cc(-c2cccc([C@H]3O[C@H](CO)[C@@H](O)[C@H](O)[C@@H]3O)c2)ccc1-c1nnc(C)o1` [Compound 127, (2R,3S,4R,5S,6R)-2-(hydroxymethyl)-6-[3-[3-methoxy-4-(5-methyl-1,3,4-oxadiazol-2-yl)phenyl]phenyl]tetrahydropyran-3,4,5-triol] and `Cc1nnc(-c2ccc(-c3cccc([C@H]4O[C@H](CO)[C@@H](O)[C@H](O)[C@@H]4O)c3)c(C)c2)o1` [Compound 125, (2R,3S,4R,5S,6R)-2-(hydroxymethyl)-6-[3-[2-methyl-4-(5-methyl-1,3,4-oxadiazol-2-yl)phenyl]phenyl]tetrahydropyran-3,4,5-triol] are within error of each other in Kd: 17.4 ± 4.8 nM for the first, 13.9 ± 2.6 nM for the second.

`Cc1nc(-c2ccc(-c3cccc([C@H]4O[C@H](CO)[C@@H](O)[C@H](O)[C@@H]4O)c3)cc2)cs1` [Compound 177] and `OC[C@H]1O[C@H](c2cccc(-c3ccc4[nH]c(O)nc4c3)c2)[C@@H](O)[C@@H](O)[C@@H]1O` [Compound 147, (2R,3S,4R,5S,6R)-2-[3-(2-Hydroxy-1H-benzimidazol-5-yl)phenyl]-6-(hydroxymethyl)tetrahydropyran-3,4,5-triol] are within error of each other in Kd: 12.1 ± 5.8 nM for the first, 10.9 ± 4 nM for the second.

`COC(=O)c1nc2cc(-c3cccc([C@H]4O[C@H](CO)[C@@H](O)[C@H](O)[C@@H]4O)c3)ccc2[nH]1` [Compound 151, Methyl 5-[3-[(2R,3S,4R,5S,6R)-3,4,5-trihydroxy-6-(hydroxymethyl)tetrahydropyran-2-yl]phenyl]-1H-benzimidazole-2-carboxylate] and `COC(=O)c1ccc2nc(-c3cccc([C@H]4O[C@H](CO)[C@@H](O)[C@H](O)[C@@H]4O)c3)ccc2c1` [Compound 144, Methyl 2-[3-[(2R,3S,4R,5S,6R)-3,4,5-trihydroxy-6-(hydroxymethyl)tetrahydropyran-2-yl]phenyl]quinoline-6-carboxylate] are within error of each other in Kd: 37.8 ± 13.4 nM for the first, 18.3 ± 7.5 nM for the second.

Going from `Cc1nnc(-c2ccc(-c3cccc([C@H]4O[C@H](CO)[C@@H](O)[C@H](O)[C@@H]4O)c3)nc2)o1` [Compound 183, (2R,3S,4R,5S,6R)-2-(hydroxymethyl)-6-(3-(5-(5-methyl-1,3,4-oxadiazol-2-yl)pyridin-2-yl)phenyl)tetrahydro-2H-pyran-3,4,5-triol] to `CNC(=O)c1cccc(Oc2cc([C@H]3O[C@H](CO)[C@@H](O)[C@H](O)[C@@H]3O)ccc2OC)c1` [Compound 188, 3-[2-methoxy-5-[(2R,3S,4R,5S,6R)-3,4,5-trihydroxy-6-(hydroxymethyl)tetrahydropyran-2-yl]phenoxy]-N-methyl-benzamide], the Kd falls from 24.8 ± 8.3 nM to 11.1 ± 1.1 nM (2.2-fold).

First: CNC(=O)c1cc(C#Cc2cc([C@H]3O[C@H](CO)[C@@H](O)[C@H](O)[C@@H]3O)ccc2OC)cc(C(=O)NC)c1 [Compound 84, 5-[2-[2-Methoxy-5-[(2R,3S,4R,5S,6R)-3,4,5-trihydroxy-6-(hydroxymethyl)tetrahydropyran-2-yl]phenyl]ethynyl]-N1,N3-dimethyl-benzene-1,3-dicarboxamide]
Second: COC(=O)c1ccc(C#Cc2cccc([C@H]3O[C@H](CO)[C@@H](O)[C@H](O)[C@@H]3O)c2)cc1 [Compound 87, Methyl 4-[2-[3-[(2R,3S,4R,5S,6R)-3,4,5-trihydroxy-6-(hydroxymethyl)tetrahydropyran-2-yl]phenyl]ethynyl]benzoate]
The Kd of the first is 4-fold higher: 27.5 ± 3.9 nM for the first, 6.8 ± 0.2 nM for the second.

`COC(=O)c1cccc(CCc2cccc([C@H]3O[C@H](CO)[C@@H](O)[C@H](O)[C@@H]3O)c2)c1` [Compound 101, Methyl 3-[2-[3-[(2R,3S,4R,5S,6R)-3,4,5-trihydroxy-6-(hydroxymethyl)tetrahydropyran-2-yl]phenyl]ethyl]benzoate] and `CNC(=O)c1cccc(Oc2cccc([C@H]3O[C@H](CO)[C@@H](O)[C@H](O)[C@@H]3O)c2F)c1` [Compound 200, 3-[2-fluoro-3-[(2R,3S,4R,5S,6R)-3,4,5-trihydroxy-6-(hydroxymethyl)tetrahydropyran-2-yl]phenoxy]-N-methyl-benzamide] are within error of each other in Kd: 12.9 ± 9.7 nM for the first, 8.4 ± 0.8 nM for the second.

Compared with `COC(=O)CCCOc1ccc(C2O[C@H](CO)[C@@H](O)[C@H](O)[C@@H]2O)cc1` (stereo partly drawn) [Compound 243], `COCCCOc1ccc(C2O[C@H](CO)[C@@H](O)[C@H](O)[C@@H]2O)cc1` (stereo partly drawn) [Compound 233] is 1.8-fold higher in Kd: 5.8 nM for the first, 10.3 ± 3.9 nM for the second. The first binds more tightly here.

`O=C(c1ccccc1)c1ccc2[nH]c(-c3cccc([C@H]4O[C@H](CO)[C@@H](O)[C@H](O)[C@@H]4O)c3)nc2c1` [Compound 168] and `COc1ccccc1NC(=O)COc1ccc(C2O[C@H](CO)[C@@H](O)[C@H](O)[C@@H]2O)cc1` (stereo partly drawn) [Compound 242] are within error of each other in Kd: 42.5 ± 18.3 nM for the first, 21.5 ± 3.9 nM for the second.

`Cc1cc(O)cc([C@H]2O[C@H](CO)[C@@H](O)[C@H](O)[C@@H]2O)c1` [Compound 194, (2R,3S,4R,5S,6R)-2-(hydroxymethyl)-6-(3-hydroxy-5-methyl-phenyl)tetrahydropyran-3,4,5-triol] and `OC[C@H]1OC(c2cccc(OCCCCC(F)(F)F)c2)[C@@H](O)[C@@H](O)[C@@H]1O` (stereo partly drawn) [Compound 209] are within error of each other in Kd: 31 ± 29.4 nM for the first, 12.5 ± 5.3 nM for the second.

In the case of `CNC(=O)c1ccc(Oc2cccc([C@H]3O[C@H](CO)[C@@H](O)[C@H](O)[C@@H]3O)c2F)cc1` [Compound 198, 4-[2-fluoro-3-[(2R,3S,4R,5S,6R)-3,4,5-trihydroxy-6-(hydroxymethyl)tetrahydropyran-2-yl]phenoxy]-N-methyl-benzamide], the Kd is reported as 10.8 ± 5.2 nM.

The compounds below were run against T1, FimH-CRD (assay: Competitive binding assay by fluorescence polarization, assay 1 (compounds prepared by manual serial dilution)).
Method in brief: as §1

`CNC(=O)c1cccc([C@H]2O[C@H](CO)[C@@H](O)[C@H](O)[C@@H]2O)c1` [Compound 35, N-methyl-3-((2R,3S,4R,5S,6R)-3,4,5-trihydroxy-6-(hydroxymethyl)tetrahydro-2H-pyran-2-yl)benzamide] and `COc1cccc([C@H]2O[C@H](CO)[C@@H](O)[C@H](O)[C@@H]2O)c1` [Compound 44, (2R,3S,4R,5S,6R)-2-(hydroxymethyl)-6-(3-methoxyphenyl)tetrahydropyran-3,4,5-triol] are within 1.5-fold of each other in IC50: 172 nM for the first, 156 nM for the second.

Going from `COC(=O)c1ccc(Oc2ccc([C@H]3O[C@H](CO)[C@@H](O)[C@H](O)[C@@H]3O)cc2)cc1` [Compound 54, methyl 4-(4-((2R,3S,4R,5S,6R)-3,4,5-trihydroxy-6-(hydroxymethyl)tetrahydro-2H-pyran-2-yl)phenoxy)benzoate] to `Cc1nnc(-c2ccc(Oc3cccc([C@H]4O[C@H](CO)[C@@H](O)[C@H](O)[C@@H]4O)c3)cc2)o1` [Compound 60, (2R,3S,4R,5S,6R)-2-(hydroxymethyl)-6-[3-[4-(5-methyl-1,3,4-oxadiazol-2-yl)phenoxy]phenyl]tetrahydropyran-3,4,5-triol], the IC50 rises from 16 nM to 31 nM (1.9-fold). The first is the more potent here.

`CNC(=O)c1cccc([C@H]2O[C@H](CO)[C@@H](O)[C@H](O)[C@@H]2O)c1` [Compound 35, N-methyl-3-((2R,3S,4R,5S,6R)-3,4,5-trihydroxy-6-(hydroxymethyl)tetrahydro-2H-pyran-2-yl)benzamide] and `COc1cccc([C@H]2O[C@H](CO)[C@@H](O)[C@H](O)[C@@H]2O)c1` [Compound 44, (2R,3S,4R,5S,6R)-2-(hydroxymethyl)-6-(3-methoxyphenyl)tetrahydropyran-3,4,5-triol] are within error of each other in Kd: 56.2 ± 4.9 nM for the first, 41.8 ± 11.6 nM for the second.

Going from `COC(=O)c1ccc(Oc2ccc([C@H]3O[C@H](CO)[C@@H](O)[C@H](O)[C@@H]3O)cc2)cc1` [Compound 54, methyl 4-(4-((2R,3S,4R,5S,6R)-3,4,5-trihydroxy-6-(hydroxymethyl)tetrahydro-2H-pyran-2-yl)phenoxy)benzoate] to `Cc1nnc(-c2ccc(Oc3cccc([C@H]4O[C@H](CO)[C@@H](O)[C@H](O)[C@@H]4O)c3)cc2)o1` [Compound 60, (2R,3S,4R,5S,6R)-2-(hydroxymethyl)-6-[3-[4-(5-methyl-1,3,4-oxadiazol-2-yl)phenoxy]phenyl]tetrahydropyran-3,4,5-triol], the Kd rises from < 5 nM to 8.7 ± 2.1 nM.

Work on `COC(=O)c1cc(C(=O)OC)cc(-c2cccc([C@H]3O[C@H](CO)[C@@H](O)[C@H](O)[C@@H]3O)c2)c1` [Compound 62, Dimethyl 3′-((2R,3S,4R,5S,6R)-3,4,5-trihydroxy-6-(hydroxymethyl)tetrahydro-2H-pyran-2-yl)-[1,1′-biphenyl]-3,5-dicarboxylate] yielded a Kd of 5.5 ± 0.4 nM.
